Laboratory results as given in patent US9221765B2, “Inhibition and dispersion of bacterial biofilms with benzimidazole derivatives” (North Carolina State University, priority 2009, dated 2015).
Counter-ions that a name gives are not always drawn.

Assays:
[1] = test system: vancomycin-resistant Enterococcus faecium (VRE); assay: Inhibition of VRE (E. faecium) biofilm formation (crystal violet); format: cell-based
Experimental: (§1) A dose-response study was then initiated in which both the IC50 and EC50 value of each compound towards the bacterial strains were determined (Table 1). Here, IC50 is defined as the concentration of compound that inhibits 50% biofilm development while EC50 is defined as the concentration of compound that disperses 50% of a pre-formed biofilm.
(§2) Procedure to Determine the Inhibitory Effect of Test Compounds on E. faecium, MRSA, S. epidermidis, PAO1 and MDRAB Biofilm Formation:
(§3) Inhibition assays were performed by taking an overnight culture of bacterial strain and subculturing it at an OD600 of 0.01 into the necessary media (brain heart infusion for E. faecium, tryptic soy broth with a 0.5% glucose supplement (TSBG) for MRSA, Luria-Bertani (LB) media for MDRAB, Luria-Bertani media without NaCl (LBNS) for PAO1 and tryptic soy broth with a 0.5% glucose supplement and a 3.0% NaCl supplement (TGN) for S. epidermidis. Stock solutions of predetermined concentrations of the test compound were then made in the necessary media. These stock solutions were aliquoted (100 μL) into the wells of the 96-well PVC microtiter plate. Sample plates were then wrapped in GLAD Press n′ Seal® followed by an incubation under stationary conditions for 24 h at 37° C. After incubation, the media was discarded from the wells and the plates were washed thoroughly with water. Plates were then stained with 100 μL of 0.1% solution of crystal violet (CV) and then incubated at ambient temperature for 30 min. Plates were washed with water again and the remaining stain was solubilized with 200 μL of 95% ethanol. A sample of 125 μL of solubilized CV stain from each well was transferred to the corresponding wells of a polystyrene microtiter dish. Biofilm inhibition was quantitated by measuring the OD540 of each well in which a negative control lane wherein no biofilm was formed served as a background and was subtracted out.
as §3, with “2-(2-amino-1H-benzo[d]imidazol-6-ylcarbamoyl)-3,4,5,6-tetrachlorobenzoic acid hydrochloride” for “test compound”, “media. Samples were then doped with 10.0 μM FeSO4 with samples with no test compound to examine effects of 10.0 μM FeSO4 on biofilm formation.” for “media.”

MRSA = assay: Inhibition of MRSA biofilm formation (crystal violet); format: cell-based, Staphylococcus aureus; details: Staphylococcus aureus
Experimental: as §1, §2, §3
as §3, with “2-(2-amino-1H-benzo[d]imidazol-6-ylcarbamoyl)-3,4,5,6-tetrachlorobenzoic acid hydrochloride” for “test compound”, “media. Samples were then doped with 10.0 μM FeSO4 with samples with no test compound to examine effects of 10.0 μM FeSO4 on biofilm formation.” for “media.”

[2] = test system: E. faecium, MRSA and S. epidermidis; assay: Mitigating effects of iron on biofilm formation inhibition; format: cell-based; details: increasing Fe(II) concentration, 10.0 μM FeSO4, hydrochloride
Experimental: Next the mechanistic basis of how compound 3 was able to inhibit and disperse bacterial biofilms was investigated. Iron levels are known to effect Gram-positive biofilm development (Deighton, M.; Borland, R. Infection and Immunity 1993, 61, 4473-4479) and were deemed a plausible driver of the observed anti-biofilm activity. To examine Fe(II) related antibiofilm behavior, a dose-dependent study was performed in which the ability of 3 to inhibit biofilm development was measured under increasing Fe(II) concentration. […]
Inhibition assays were performed by taking an overnight culture of bacterial strain and subculturing it at an OD600 of 0.01 into the necessary media (brain heart infusion for E. faecium, tryptic soy broth with a 0.5% glucose supplement (TSBG) for MRSA, Luria-Bertani (LB) media for MDRAB, Luria-Bertani media without NaCl (LBNS) for PAO1 and tryptic soy broth with a 0.5% glucose supplement and a 3.0% NaCl supplement (TGN) for S. epidermidis. Stock solutions of predetermined concentrations of the 2-(2-amino-1H-benzo[d]imidazol-6-ylcarbamoyl)-3,4,5,6-tetrachlorobenzoic acid hydrochloride were then made in the necessary media. […] Biofilm inhibition was quantitated by measuring the OD540 of each well in which a negative control lane wherein no biofilm was formed served as a background and was subtracted out.

[3] = test system: vancomycin-resistant Enterococcus faecium (VRE); assay: Dispersion of preformed VRE (E. faecium) biofilm; format: cell-based; details: concentration that disperses 50% of a pre-formed biofilm
Experimental: as §1
Procedure to Determine the Dispersal Effect of Test Compounds on E. faecium, MRSA and S. epidermidis Preformed Biofilms:
Dispersion assays were performed by taking an overnight culture of bacterial strain and subculturing it at an OD600 of 0.01 into the necessary media (brain heart infusion for E. faecium, tryptic soy broth with a 0.5% glucose supplement (TSBG) for MRSA and tryptic soy broth with a 0.5% glucose supplement and a 3.0% NaCl supplement (TGN) for S. epidermidis. The resulting bacterial suspension was aliquoted (100 μL) into the wells of a 96-well PVC microtiter plate. Plates were then wrapped in GLAD Press n′ Seal® followed by an incubation under stationary conditions at ambient temperature to establish the biofilms. After 24 h, the media was discarded from the wells and the plates were washed thoroughly with water. Stock solutions of predetermined concentrations of the test compound were then made in the necessary media. These stock solutions were aliquoted (100 μL) into the wells of the 96-well PVC microtiter plate with the established biofilms. Media alone was added to a subset of the wells to serve as a control. Sample Plates were then incubated for 24 h at 37° C. After incubation, the media was discarded from the wells and the plates were washed thoroughly with water. Plates were then stained with 100 μL of 0.1% solution of crystal violet (CV) and then incubated at ambient temperature for 30 min. Plates were washed with water again and the remaining stain was solubilized with 200 μL of 95% ethanol. A sample of 125 μL of solubilized CV stain from each well was transferred to the corresponding wells of a polystyrene microtiter dish. Biofilm dispersion was quantitated by measuring the OD540 of each well in which a negative control lane wherein no biofilm was formed served as a background and was subtracted out.

[4] = 1H NMR binding control experiment with FeSO4; details: 0, 0.5, or 1.0 equivalents FeSO4
Experimental: Given this Zn(II)-dependence, the ability of 3 to bind zinc directly was determined to ascertain if the mechanism was potentially occurring via a Zn(II)-binding mechanism. To answer this question, an ^1H NMR binding experiment was performed in which the chemical shifts of 3 were measured in the presence of 0 equivalents, 0.5 equivalents, and 1.0 equivalents ZnCl2. […] As a control, the same experiment was performed with FeSO4.

## Nc1nc2ccc(NC(=O)c3c(Cl)c(Cl)c(Cl)c(Cl)c3C(=O)O)cc2[nH]1 [Compound 3, 2-(2-amino-1H-benzo[d]imidazol-6-ylcarbamoyl)-3,4,5,6-tetrachlorobenzoic acid hydrochloride]
[1]
  IC50: 1.4 µM
MRSA
  IC50: 0.86 µM
MRSA; concentration that inhibits 50% biofilm development
  IC50: 0.89 ± 0.01 µM
[2]
  effect of Fe(II) on biofilm inhibitory activity: not affected by increasing Fe(II) concentrations
[2]; listed as 2-(2-amino-1H-benzo[d]imidazol-6-ylcarbamoyl)-3,4,5,6-tetrachlorobenzoic acid hy
  effect of Fe(II) on biofilm inhibitory activity: no effect on biofilm inhibitory activity
[3]
  EC50: 74.8 µM
[3]; hydrochloride
  EC50: 75 µM
[4]
  change in NMR signal with FeSO4: No change
